pEC50: −log10 of the molar value.
Legend:
[1] = molecular target: T1, Oxysterols receptor LXR-beta (Homo sapiens, UniProt P55055); assay: Agonist activity at LXRbeta-LBD expressed in HEK293 cells assessed as Gal4-DBD interaction by cellular mammalian one hybrid assay; assay type: functional, cell-based
T1 sequence (P55055 whole entry): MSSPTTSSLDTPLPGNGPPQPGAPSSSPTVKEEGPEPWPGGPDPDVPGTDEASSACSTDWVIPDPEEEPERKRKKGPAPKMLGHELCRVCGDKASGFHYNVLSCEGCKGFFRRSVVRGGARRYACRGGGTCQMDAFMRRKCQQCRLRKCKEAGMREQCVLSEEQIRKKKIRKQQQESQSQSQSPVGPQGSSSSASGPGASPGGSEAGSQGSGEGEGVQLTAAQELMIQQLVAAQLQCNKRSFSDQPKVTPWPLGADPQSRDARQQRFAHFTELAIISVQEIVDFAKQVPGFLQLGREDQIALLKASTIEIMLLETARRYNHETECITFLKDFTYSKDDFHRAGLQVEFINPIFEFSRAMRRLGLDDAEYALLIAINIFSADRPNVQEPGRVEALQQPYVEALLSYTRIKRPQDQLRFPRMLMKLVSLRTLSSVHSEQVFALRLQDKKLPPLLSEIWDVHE

[2] = molecular target: T2, Bile acid receptor (Homo sapiens, UniProt Q96RI1); assay: Agonist activity at human GST-fused FXR LBD assessed as cofactor peptide interaction with receptor ligand binding domain by FRET assay
T2 sequence (Q96RI1 whole entry): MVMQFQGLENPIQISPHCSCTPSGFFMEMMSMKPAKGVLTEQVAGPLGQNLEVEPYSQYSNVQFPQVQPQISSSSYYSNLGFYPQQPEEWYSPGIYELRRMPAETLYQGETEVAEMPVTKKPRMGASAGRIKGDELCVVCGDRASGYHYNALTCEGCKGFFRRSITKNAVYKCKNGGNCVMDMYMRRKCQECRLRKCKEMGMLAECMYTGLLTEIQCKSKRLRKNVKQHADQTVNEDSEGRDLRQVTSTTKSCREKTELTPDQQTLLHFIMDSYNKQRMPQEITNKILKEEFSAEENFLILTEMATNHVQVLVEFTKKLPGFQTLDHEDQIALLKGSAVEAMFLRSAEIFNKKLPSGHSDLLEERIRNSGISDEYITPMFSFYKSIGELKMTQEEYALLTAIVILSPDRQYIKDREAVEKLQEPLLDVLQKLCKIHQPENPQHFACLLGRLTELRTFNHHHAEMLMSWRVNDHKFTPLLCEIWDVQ

[3] = molecular target: T3, Peroxisome proliferator-activated receptor alpha (Homo sapiens) (UniProt Q07869); assay: Agonist activity at PPARalpha-LBD expressed in HEK293 cells assessed as Gal4-DBD interaction by cellular mammalian one hybrid assay relative to GW-7467; assay type: functional, cell-based
T3 sequence (whole entry): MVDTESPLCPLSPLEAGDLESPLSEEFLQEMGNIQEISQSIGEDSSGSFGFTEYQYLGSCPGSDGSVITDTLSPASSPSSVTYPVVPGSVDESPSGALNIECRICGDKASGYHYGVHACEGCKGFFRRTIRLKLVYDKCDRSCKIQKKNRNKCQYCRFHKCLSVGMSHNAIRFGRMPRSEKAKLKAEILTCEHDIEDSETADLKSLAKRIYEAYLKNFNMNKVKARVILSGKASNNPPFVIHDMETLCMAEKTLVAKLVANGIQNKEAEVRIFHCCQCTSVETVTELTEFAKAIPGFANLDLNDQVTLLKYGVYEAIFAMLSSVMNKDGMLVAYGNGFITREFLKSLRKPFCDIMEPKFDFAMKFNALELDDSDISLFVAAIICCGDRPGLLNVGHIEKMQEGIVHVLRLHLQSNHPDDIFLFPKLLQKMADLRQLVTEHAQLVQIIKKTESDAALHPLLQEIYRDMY

[4] = molecular target: T4, Oxysterols receptor LXR-beta (Homo sapiens) (UniProt P55055); assay: Agonist activity at LXRbeta-LBD expressed in HEK293 cells assessed as Gal4-DBD interaction by cellular mammalian one hybrid assay relative to T0901317; assay type: functional, cell-based
T4 sequence (whole entry): T1 sequence (P55055 whole entry)

[5] = molecular target: T5, Bile acid receptor (Homo sapiens) (UniProt Q96RI1); assay: Agonist activity at human GST-fused FXR LBD assessed as cofactor peptide interaction with receptor ligand binding domain by FRET assay relative to GW-4064
T5 sequence (whole entry): T2 sequence (Q96RI1 whole entry)

[6] = molecular target: T6, Retinoic acid receptor gamma (Homo sapiens) (UniProt P13631); assay: Agonist activity at RARgamma-LBD expressed in HEK293 cells assessed as Gal4-DBD interaction by cellular mammalian one hybrid assay relative to relative to retinoic acid; assay type: functional, cell-based
T6 sequence (whole entry): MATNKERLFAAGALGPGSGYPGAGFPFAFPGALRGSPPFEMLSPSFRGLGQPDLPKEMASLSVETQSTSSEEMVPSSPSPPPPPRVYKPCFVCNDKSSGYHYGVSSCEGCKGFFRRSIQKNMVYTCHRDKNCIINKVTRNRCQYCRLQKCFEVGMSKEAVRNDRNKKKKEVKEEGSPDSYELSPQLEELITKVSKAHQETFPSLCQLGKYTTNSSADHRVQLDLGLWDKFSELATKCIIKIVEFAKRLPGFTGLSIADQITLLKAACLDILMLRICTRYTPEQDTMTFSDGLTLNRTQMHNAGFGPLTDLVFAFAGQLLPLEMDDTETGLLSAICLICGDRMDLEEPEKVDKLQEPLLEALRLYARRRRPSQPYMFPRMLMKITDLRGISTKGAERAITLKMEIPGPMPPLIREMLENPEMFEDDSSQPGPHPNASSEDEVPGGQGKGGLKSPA

SMILES	pEC50 [1]	pEC50 [2]	Efficacy [3]	Efficacy [4]	Efficacy [5]	Efficacy [6]
CN(Cc1cccc(C(=O)O)c1)c1ccc(OCc2c(-c3c(Cl)cccc3Cl)noc2C2CC2)nc1C(F)(F)F	< 5.00	8.52	15%	0%	102%	0%
CN(Cc1ccc(C(=O)O)cc1)c1ccc(OCc2c(-c3c(Cl)cccc3Cl)noc2C2CC2)nc1C(F)(F)F	< 5.00	7.92	0%	0%	109%	0%
CC(C)c1onc(-c2c(Cl)cccc2Cl)c1COc1ccc(N(C)Cc2ccc(C(=O)O)cc2)c(C(F)(F)F)n1	< 5.00	7.66	0%	0%	97%	0%
